Source: patent publication US8613914B2, “Peptidomimetic sulfamide compounds and antiviral uses thereof” (Novartis AG, priority 2009, dated 2013)

Biological target: HCV NS3-4A serine protease (full-length NS3-4A protein) (Hepatitis C virus genotype 1a (isolate 1) (HCV), UniProt P26664)
Test: HCV NS3-4A protease assay
Assay type: biochemical, HCV genotype 1a
Conditions: strain HCV-1, fluorogenic peptide substrate, read-out: Protease assay Ex. 12 IC50
Experimental: The inhibitory activity of certain compounds of Table A against HCV NS3-4A serine protease is determined in a homogenous assay using the full-length NS3-4A protein (genotype 1a, strain HCV-1) and a commercially available internally-quenched fluorogenic peptide substrate as described by Taliani, M., et al. 1996 Anal. Biochem. 240:60-67, which is incorporated by reference in its entirety.

HCV NS3-4A serine protease (full-length NS3-4A protein), sequence (P26664 1027-1657): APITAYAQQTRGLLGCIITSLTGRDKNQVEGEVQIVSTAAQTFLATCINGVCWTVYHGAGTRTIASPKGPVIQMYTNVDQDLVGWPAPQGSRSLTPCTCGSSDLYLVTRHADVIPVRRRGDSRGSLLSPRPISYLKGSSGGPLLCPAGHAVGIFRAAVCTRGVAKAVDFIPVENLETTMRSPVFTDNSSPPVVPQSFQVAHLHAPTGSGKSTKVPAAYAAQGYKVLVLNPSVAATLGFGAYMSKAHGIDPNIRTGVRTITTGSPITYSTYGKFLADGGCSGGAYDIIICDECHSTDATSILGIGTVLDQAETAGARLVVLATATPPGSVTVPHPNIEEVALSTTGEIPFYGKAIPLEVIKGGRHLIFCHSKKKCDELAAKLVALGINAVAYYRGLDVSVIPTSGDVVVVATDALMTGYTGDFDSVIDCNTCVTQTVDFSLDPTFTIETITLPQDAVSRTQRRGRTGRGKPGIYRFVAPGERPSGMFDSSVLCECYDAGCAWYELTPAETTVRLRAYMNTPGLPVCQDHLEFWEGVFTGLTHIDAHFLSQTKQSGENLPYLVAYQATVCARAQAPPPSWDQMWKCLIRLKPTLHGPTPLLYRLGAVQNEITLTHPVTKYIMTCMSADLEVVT
HCV NS3-4A serine protease (full-length NS3-4A protein), sequence (P26664 1658-1711 partner): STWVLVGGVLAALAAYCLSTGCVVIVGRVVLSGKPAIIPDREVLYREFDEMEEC

C=C[C@@H]1C[C@]1(NC(=O)[C@@H]1C[C@@]2(CN1C(=O)[C@@H](NC(=O)[C@@H](NC(=O)[C@@H]1CCCCN1C(C)C)C1CCCCC1)C(C)(C)C)C(C)(C)C21CCC1)C(=O)NS(=O)(=O)N(CC)CC [Compound 174, (5R,8S)-7-[(2S)-2-{[(2S)-2-cyclohexyl-2-({[(2S)-1-isopropylpiperidin-2-yl]carbonyl}amino)acetyl]amino}-3,3-dimethylbutanoyl]-N-[(1R,2S)-1-{[(diethylamino)sulfonyl]carbamoyl}-2-vinylcyclopropyl]-10,10-dimethyl-7-azadispiro[3.0.4.1]decane-8-carboxamide]
IC50: 0.0006 µM

C=C[C@@H]1C[C@]1(NC(=O)[C@@H]1C[C@@]2(CN1C(=O)[C@@H](NC(=O)[C@@H](NC(=O)[C@@H]1CCCCN1C(C)C)c1ccccc1)C(C)(C)C)C(C)(C)C21CCC1)C(=O)NS(=O)(=O)N1CCCC1 [Compound 104, (5R,8S)-7-[(2S)-2-{[(2S)-2-({[(2S)-1-isopropylpiperidin-2-yl]carbonyl}amino)-2-phenylacetyl]amino}-3,3-dimethylbutanoyl]-10,10-dimethyl-N-{(1R,2S)-1-[(pyrrolidin-1-ylsulfonyl)carbamoyl]-2-vinylcyclopropyl}-7-azadispiro[3.0.4.1]decane-8-carboxamide]
IC50: 0.015 µM

C=C[C@@H]1C[C@]1(NC(=O)[C@@H]1C[C@@]2(CN1C(=O)[C@@H](NC(=O)[C@@H](NC(=O)c1ccccc1NC)C1CCCCC1)C(C)(C)C)C(C)(C)C21CCC1)C(=O)NS(=O)(=O)N1CCCC1 [Compound 182, (5R,8S)-7-{(2S)-2-[(cyclohexyl{[2-(methylamino)benzoyl]amino}acetyl)amino]-3,3-dimethylbutanoyl}-10,10-dimethyl-N-{(1R,2S)-1-[(pyrrolidin-1-ylsulfonyl)carbamoyl]-2-vinylcyclopropyl}-7-azadispiro[3.0.4.1]decane-8-carboxamide]
IC50: 0.07 µM

C=C[C@@H]1C[C@]1(NC(=O)[C@@H]1C[C@@]2(CN1C(=O)[C@@H](NC(=O)[C@@H](NC(=O)c1ccnc3ccccc13)C1CCCCC1)C(C)(C)C)C(C)(C)C21CCC1)C(=O)NS(=O)(=O)N1CCCC1 [Compound 197, (5R,8S)-7-[(2S)-2-({cyclohexyl[(quinolin-4-ylcarbonyl)amino]acetyl}amino)-3,3-dimethylbutanoyl]-10,10-dimethyl-N-{(1R,2S)-1-[(pyrrolidin-1-ylsulfonyl)carbamoyl]-2-vinylcyclopropyl}-7-azadispiro[3.0.4.1]decane-8-carboxamide]
IC50: 0.04 µM

C=C[C@@H]1C[C@]1(NC(=O)[C@@H]1C[C@@]2(CN1C(=O)[C@@H](NC(=O)[C@@H](NC(=O)[C@@H]1CCCCN1C(C)C)C(C)(C)C)C(C)(C)C)C(C)(C)C21CCC1)C(=O)NS(=O)(=O)N1CCOCC1 [Compound 6, (5R,8S)-7-[(2S)-2-{[(2S)-2-({[(2S)-1-isopropylpiperidin-2-yl]carbonyl}amino)-3,3-dimethylbutanoyl]amino}-3,3-dimethylbutanoyl]-10,10-dimethyl-N-{(1R,2S)-1-[(morpholin-4-ylsulfonyl)carbamoyl]-2-vinylcyclopropyl}-7-azadispiro[3.0.4.1]decane-8-carboxamide]
IC50: 0.045 µM

C=C[C@@H]1C[C@]1(NC(=O)[C@@H]1C[C@@]2(CN1C(=O)[C@@H](NC(=O)[C@@H](NC(=O)C(C)(C)N1CCCCC1)C(C)(C)C)C(C)(C)C)C(C)(C)C21CCC1)C(=O)NS(=O)(=O)N1CCCC1 [Compound 24, (5R,8S)-7-[(2S)-2-({(2S)-3,3-dimethyl-2-[(2-methyl-2-piperidin-1-ylpropanoyl)amino]butanoyl}amino)-3,3-dimethylbutanoyl]-10,10-dimethyl-N-{(1R,2S)-1-[(pyrrolidin-1-ylsulfonyl)carbamoyl]-2-vinylcyclopropyl}-7-azadispiro[3.0.4.1]decane-8-carboxamide]
IC50: 0.065 µM

C=C[C@@H]1C[C@]1(NC(=O)[C@@H]1C[C@@]2(CN1C(=O)[C@@H](NC(=O)[C@@H](NC(=O)[C@@H]1CCCCN1C1CCCC1)C1CCCCC1)C(C)(C)C)C(C)(C)C21CCC1)C(=O)NS(=O)(=O)N1CCCC1 [Compound 32, (5R,8S)-7-[(2S)-2-{[(2S)-2-cyclohexyl-2-({[(2S)-1-cyclopentylpiperidin-2-yl]carbonyl}amino)acetyl]amino}-3,3-dimethylbutanoyl]-10,10-dimethyl-N-{(1R,2S)-1-[(pyrrolidin-1-ylsulfonyl)carbamoyl]-2-vinylcyclopropyl}-7-azadispiro[3.0.4.1]decane-8-carboxamide]
IC50: 0.001 µM

C=CC1CC1(NC(=O)[C@@H]1C[C@@]2(CN1C(=O)[C@@H](NC(=O)[C@@H](NC(=O)C1CCCCN1C(C)C)C1CCCCC1)C(C)(C)C)C(C)(C)C21CCC1)C(=O)NS(=O)(=O)N1CC(F)(F)C1 (stereo partly drawn) [Compound 164, (5R,8S)-7-[(2S)-2-{[(2S)-2-cyclohexyl-2-{[(1-isopropylpiperidin-2-yl)carbonyl]amino}acetyl]amino}-3,3-dimethylbutanoyl]-N-(1-{[(3,3-difluoroazetidin-1-yl)sulfonyl]carbamoyl}-2-vinylcyclopropyl)-10,10-dimethyl-7-azadispiro[3.0.4.1]decane-8-carboxamide]
IC50: 0.008 µM

C=C[C@@H]1C[C@]1(NC(=O)[C@@H]1C[C@@]2(CN1C(=O)[C@@H](NC(=O)[C@@H](NC(=O)[C@H]1CCCCN1C(C)C)C1CCCCC1)C(C)(C)C)C(C)(C)C21CCC1)C(=O)NS(=O)(=O)N1CCCC1 [Compound 47, (5R,8S)-7-[(2S)-2-{[(2S)-2-cyclohexyl-2-({[(2R)-1-isopropylpiperidin-2-yl]carbonyl}amino)acetyl]amino}-3,3-dimethylbutanoyl]-10,10-dimethyl-N-{(1R,2S)-1-[(pyrrolidin-1-ylsulfonyl)carbamoyl]-2-vinylcyclopropyl}-7-azadispiro[3.0.4.1]decane-8-carboxamide]
IC50: 0.0048 µM

C=C[C@@H]1C[C@]1(NC(=O)[C@@H]1C[C@@]2(CN1C(=O)[C@@H](NC(=O)[C@@H](NC(=O)c1cc3ccccc3[nH]1)C1CCCCC1)C(C)(C)C)C(C)(C)C21CCC1)C(=O)NS(=O)(=O)N1CCCC1 [Compound 188, (5R,8S)-7-[(2S)-2-({cyclohexyl[(1H-indol-2-ylcarbonyl)amino]acetyl}amino)-3,3-dimethylbutanoyl]-10,10-dimethyl-N-{(1R,2S)-1-[(pyrrolidin-1-ylsulfonyl)carbamoyl]-2-vinylcyclopropyl}-7-azadispiro[3.0.4.1]decane-8-carboxamide]
IC50: 0.02 µM

C=C[C@@H]1C[C@]1(NC(=O)[C@@H]1C[C@@]2(CN1C(=O)[C@@H](NC(=O)[C@@H](NC(=O)[C@@H]1CCCCN1C(C)C)C1(C)CCCCC1)C1(C)CCCCC1)C(C)(C)C21CCC1)C(=O)NS(=O)(=O)N(CC)CC [Compound 160, (5R,8S)-N-[(1R,2S)-1-{[(diethylamino)sulfonyl]carbamoyl}-2-vinylcyclopropyl]-7-[(2S)-2-{[(2S)-2-({[(2S)-1-isopropylpiperidin-2-yl]carbonyl}amino)-2-(1-methylcyclohexyl)acetyl]amino}-2-(1-methylcyclohexyl)acetyl]-10,10-dimethyl-7-azadispiro[3.0.4.1]decane-8-carboxamide]
IC50: 0.003 µM

C=C[C@@H]1C[C@]1(NC(=O)[C@@H]1C[C@@]2(CN1C(=O)[C@@H](NC(=O)[C@@H](NC(=O)[C@@H]1CCCN1CC)C1CCCCC1)C(C)(C)C)C(C)(C)C21CCC1)C(=O)NS(=O)(=O)N1CCCCC1 [Compound 95, (5R,8S)-7-[(2S)-2-{[(2S)-2-cyclohexyl-2-({[(2S)-1-ethylpyrrolidin-2-yl]carbonyl}amino)acetyl]amino}-3,3-dimethylbutanoyl]-10,10-dimethyl-N-{(1R,2S)-1-[(piperidin-1-ylsulfonyl)carbamoyl]-2-vinylcyclopropyl}-7-azadispiro[3.0.4.1]decane-8-carboxamide]
IC50: 0.005 µM

C=C[C@@H]1C[C@]1(NC(=O)[C@@H]1C[C@@]2(CN1C(=O)[C@@H](NC(=O)[C@@H](NC(=O)C1CN(C(C)C)C1)C(C)(C)C)C(C)(C)C)C(C)(C)C21CCC1)C(=O)NS(=O)(=O)N1CCCC1 [Compound 23, (5R,8S)-7-[(2S)-2-{[(2S)-2-{[(1-isopropylazetidin-3-yl)carbonyl]amino}-3,3-dimethylbutanoyl]amino}-3,3-dimethylbutanoyl]-10,10-dimethyl-N-{(1R,2S)-1-[(pyrrolidin-1-ylsulfonyl)carbamoyl]-2-vinylcyclopropyl}-7-azadispiro[3.0.4.1]decane-8-carboxamide]
IC50: 0.4 µM

C=C[C@@H]1C[C@]1(NC(=O)[C@@H]1C[C@@]2(CN1C(=O)[C@@H](NC(=O)[C@@H](NC(=O)[C@@H]1CCCCN1CCF)C1CCCCC1)C1CCOCC1)C(C)(C)C21CCC1)C(=O)NS(=O)(=O)N1CCCC1 [Compound 75, (5R,8S)-7-[(2S)-2-{[(2S)-2-cyclohexyl-2-({[(2S)-1-(2-fluoroethyl)piperidin-2-yl]carbonyl}amino)acetyl]amino}-2-(tetrahydro-2H-pyran-4-yl)acetyl]-10,10-dimethyl-N-{(1R,2S)-1-[(pyrrolidin-1-ylsulfonyl)carbamoyl]-2-vinylcyclopropyl}-7-azadispiro[3.0.4.1]decane-8-carboxamide]
IC50: 0.03 µM

C=C[C@@H]1C[C@]1(NC(=O)[C@@H]1C[C@@]2(CN1C(=O)[C@@H](NC(=O)[C@@H](NC(=O)[C@@H]1CCCCN1CC)C1CCCCC1)C(C)(C)C)C(C)(C)C21CCC1)C(=O)NS(=O)(=O)N(C)CC [Compound 94, (5R,8S)-7-[(2S)-2-{[(2S)-2-cyclohexyl-2-({[(2S)-1-ethylpiperidin-2-yl]carbonyl}amino)acetyl]amino}-3,3-dimethylbutanoyl]-N-[(1R,2S)-1-({[ethyl(methyl)amino]sulfonyl}carbamoyl)-2-vinylcyclopropyl]-10,10-dimethyl-7-azadispiro[3.0.4.1]decane-8-carboxamide]
IC50: 0.0015 µM
